Patent US9879050B2, “Substituted urea depsipeptide analogs as activators of the CLPP endopeptidase” (priority 2013, dated 2018)
Converted amounts (≈) assume the structure as drawn.

How the values were obtained:
[1] = biological target: T1, Sa-ClpP (Staphylococcus aureus, UniProt Q2G036); assay: ClpP activation, EnzCheck Protease Assay with Bodipy-FL casein (second described method); type: biochemical, S. aureus; conditions: read-out: ClpP Activation EC50 (converted)
T1 construct: made in house; host or cells: E. coli BL21 (DE3)
Experimental: Alternatively, the assay was carried out using EnzCheck Protease Assay (Molecular Probes, Catalog #E6638). The assay was performed in black 384 well, flat bottom, low volume plates (Greiner Bio-One, Monroe, N.C., catalog #784076). 10 μL of Tris.HCl buffer, pH 8.0 with 0.01% Triton X-100 was pipetted into each well using a Well-Mate (Thermo Scientific, Waltham, Mass.). 0.4 μL test compounds or controls (2% DMSO v/v) were added to each well using a Biomek FX liquid handling robot (Beckman Coulter, Indianapolis Ind.). After addition of test compounds and controls, 10 μL of master mix containing 2 μM Sa-ClpP and 2 μM substrate (Bodipy-FL labeled casein) in Tris*HCl buffer, pH 8.0 with 0.01% (v/v) Triton X-100, was pipetted into each well. All assays were performed in triplicate, under linear velocity conditions. Increase in fluorescent signal following activation of Sa-ClpP by test compounds and controls was measured over time period of 30 mins using filters with excitation at 485±15 nm and emission at 520±25 nm on a PHERAstar FS Multilabel reader (BMG, Cary, N.C.). […] Data analysis was done by measuring rate of casein degradation over time (slopes). Computed degradation rates (slopes) were normalized to positive (ADEP4) or negative (DMSO) controls. Using nonlinear regression curve fitting EC50 values and % activation were determined using the equation “log [agonist]vs. Response-variable slope (four parameters)-symmetrical” in the program Prism 6 (GraphPad Software, La Jolla, Calif. USA, www.graphpad.com).

[2] = biological target: T1, Sa-ClpP; assay: ADEP displacement fluorescence polarization assay; type: binding, S. aureus; conditions: 1 μM Sa-ClpP, 50 nM FP probe ADEP 2591; read-out: ADEP Displacement IC50
Experimental: A fluorescence polarization (FP) assay was used to determine the activity of the disclosed compounds in displacing an ADEP analogue from ClpP. Briefly, the assay was performed in black 384 well, flat bottom, low volume plates (Greiner Bio-One, Monroe, N.C., catalog #784076). 20 μL of a pre-equilibrated (1 hr, room temperature) master mix (1 μM Sa-ClpP, 2% DMSO (v/v) and 50 nM FP probe in Tris*HCl, pH 8.0)) was pipetted into each well using a Well-Mate (Thermo Scientific, Waltham, Mass.). Sa-ClpP was prepared as described above for the ClpP activation assay. The FP probe was ADEP 2591 (structure shown above). The ADEP 2591 comprises a TAMRA fluorophore linked to a core based on modified ADEP 2378 via a short alkyl linker. Using pin transfer, approximately 0.4 μL (2% v/v DMSO) of each compound or control was added per well. After addition of compounds and controls, plates were allowed to incubate for an additional 120 minutes at room temperature. All assays were performed in triplicate. Polarization was monitored using an EnVision Multilabel reader (Perkin-Elmer, Waltham, Mass.) by exciting the FP probe at 530±25 nm, and monitoring fluorescence intensity of both parallel and perpendicular polarized light at 579±25 nm. Readout was in millipolarization units (mP).
Signal gain and G factors were determined in wells containing 20 μM ADEP 2378, which had been previously verified (data not shown) as containing completely unbound ADEP 2591. Data collected was normalized to values obtained from positive (20 μM ADEP 2378) or negative (DMSO) controls. Curves were fit with non-linear regression using the equation “log [inhibitor]vs. Response-variable slope (four parameters)-symmetrical” in the program Prism 6 (GraphPad Software, La Jolla, Calif. USA, www.graphpad.com). The structures for ADEP 2378 and ADEP 2591 are shown above. ADEP 2378 is (E)-N-((S)-1-(((2R,6S,8aS,14aS,20S,23aS)-2,6-dimethyl-5,8,14,19,23-pentaoxooctadecahydro-1H,5H,14H,19H-pyrido[2,1-i]dipyrrolo[2,1-c:2′,1′-1][1]oxa[4,7,10,13]tetraazacyclohexadecin-20-yl)amino)-1-oxo-3-phenylpropan-2-yl)pent-2-enamide. ADEP 2591 is 5-(3-(3-((6S,9S,11aS,17S,20aS)-6,10-dimethyl-5,8,11,16,20-pentaoxo-17-((S)-2-((E)-pent-2-enamido)-3-phenylpropanamido)hexadecahydro-1H,5H,16H-dipyrrolo[2,1-c:2′,1′-1][1]oxa[4,7,10,13]tetraazacyclohexadecin-9-yl)propyl)thioureido)-2-(6-(dimethylamino)-3-(dimethyliminio)-3H-xanthen-9-yl)benzoate.

[3] = Cytotoxicity assay, CellTiter-Glo cell viability; type: cell-based; conditions: African green monkey; Vero cells, 72 hours; read-out: Cytotoxicity IC50
Experimental: Cytotoxicity was determined by determining the effect of compounds on cell viability. Vero (kidney epithelial cells; ATCC CCL-81) monolayers were trypsinized and 5000 cells/well were seeded (10-15% confluency) into white-wall, flat bottom 96 well microwell plates (Corning) using enriched Dulbecco's Modified Eagle's Medium (Hyclone: DMEM/High Glucose) containing 10% Fetal Bovine Serum (ATCC-30-2020). Plates were incubated overnight at 37° C. in the presence of 5% CO2. Drug-free media was then replaced with media containing serial dilutions of test compound or DMSO carrier. After an additional 72 hours of incubation, viability was indirectly measured using the CellTiter-Glo® Luminescent Cell Viability (Promega) assay. Assay plates were read at peak emission wavelength of 560 nm using a EnVision® Multilabel Plate Reader (Perkin Elmer) or PHERAstar FS Multilabel reader (BMG, Cary, N.C.). […] USA, www.graphpad.com]. For each experiment, compounds were tested in duplicate. IC50 values presented are the range of two biologically independent experiments.

[4] = test system: S. aureus USA 300 ΔClpP; assay: Minimal inhibitory concentration, microbroth dilution; type: cell-based, Staphylococcus aureus; conditions: ClpP inactivated strain
Experimental: (§1) Minimal inhibitory concentrations (“MICs”) were determined using the microbroth dilution method according to Clinical Laboratory Standards Institute (CLSI; National, C.F. C. L. S., Methods for Dilution Antimicrobial Susceptibility Tests for Bacteria Grow aerobically-Seventh Edition: Approved Standard M7-A7, CLSI, Wayne, Pa., USA, 2008) and were read by visual inspection. Two fold serial dilutions of test compound in 100 μL of the appropriate broth media were first prepared in 96-well round bottom microtiter plates (Nalgene Nunc International, Rochester, N.Y., USA). An equivalent volume (100 μL) of bacterial broth inocula containing approximately 10^5 bacterial cfu/mL was added to each well to give final concentrations of test compound starting at 200 μM. The plates were then incubated aerobically at 37° C. All strains were incubated overnight. After incubations, in all cases the MIC was recorded as the lowest concentration of drug that prevented bacterial growth. The bacterial strains for which MIC was determined as described in Table 4.

[5] = test system: S. pneumoniae R6; assay: as above; type: cell-based; conditions: Streptococcus pneumoniae, R6, read-out: Minimal Inhibitory Concentration S. pneumoniae R6
Experimental: (§2) Minimal inhibitory concentrations (“MICs”) were determined using the microbroth dilution method according to Clinical Laboratory Standards Institute (CLSI; National, C.F. C. L. S., Methods for Dilution Antimicrobial Susceptibility Tests for Bacteria Grow aerobically-Seventh Edition: Approved Standard M7-A7, CLSI, Wayne, Pa., USA, 2008) and were read by visual inspection. Two fold serial dilutions of test compound in 100 μL of the appropriate broth media were first prepared in 96-well round bottom microtiter plates (Nalgene Nunc International, Rochester, N.Y., USA). […] The plates were then incubated aerobically at 37° C. All strains were incubated overnight. After incubations, in all cases the MIC was recorded as the lowest concentration of drug that prevented bacterial growth. The bacterial strains for which MIC was determined as described in Table 4.

[6] = test system: S. pyogenes ATCC 700294; assay: as above; type: cell-based; conditions: Streptococcus pyogenes, ATCC700294, read-out: Minimal Inhibitory Concentration S. pyogenes ATCC 700294
Experimental: as §2

[7] = test system: B. subtilis ATCC 23857; assay: as above; type: cell-based; conditions: Bacillus subtilis, ATCC23857, read-out: Minimal Inhibitory Concentration B. subtilis ATCC 23857
Experimental: as §1

[8] = test system: S. aureus ATCC 29213; assay: as above; type: cell-based; conditions: Staphylococcus aureus, ATCC29213, read-out: Minimal Inhibitory Concentration S. aureus ATCC 29213
Experimental: as §1

T1 sequence (Q2G036 whole entry): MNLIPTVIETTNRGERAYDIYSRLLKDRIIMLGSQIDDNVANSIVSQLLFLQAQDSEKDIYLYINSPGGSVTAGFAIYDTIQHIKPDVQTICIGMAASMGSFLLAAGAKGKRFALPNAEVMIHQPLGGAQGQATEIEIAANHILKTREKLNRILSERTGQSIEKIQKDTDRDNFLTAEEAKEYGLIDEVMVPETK

Structure (SMILES)	EC50 [1] [µM]	IC50 [2] [µM]	IC50 at 72 h [3] [µM]	Minimal Inhibitory Concentration S. aureus USA 300 ΔClpP [4] [µM]	MIC [5] [µM]	MIC [6] [µM]	MIC [7] [µM]	MIC [8] [µM]
Cc1ccc(NC(=O)N[C@@H](Cc2cc(F)cc(F)c2)C(=O)N[C@@H]2C(=O)N3CCCC3C(=O)N(C)[C@@H](C)C(=O)N[C@@H](C)C(=O)N3CCCC3C(=O)O[C@H]2C)cc1 (stereo partly drawn) [Compound 25, (2S)-3-(3,5-Difluorophenyl)-N-((6S,9S,11aS,17S,18S)-6,9,10,18-Tetramethyl-5,8,11,16,20-Pentaoxohexadecahydro-1H,5H,16H-Dipyrrolo[2,1-C:2′,1′-L][1]Oxa[4,7,10,13]Tetraazacyclohexadecin-17-Yl)-2-(3-(P-Tolyl)Ureido)Propanamide]	0.48 ± 0.03	8.9 ± 0.3	10.8 ± 1	200	0.254 (≈ 0.195 µg/mL)	1 (≈ 0.768 µg/mL)	0.02 (≈ 0.0154 µg/mL)	0.78 (≈ 0.599 µg/mL)
Cc1ccc(NC(=O)N[C@@H](Cc2cc(F)cc(F)c2)C(=O)N[C@H]2COC(=O)C3C[C@H](C)CN3C(=O)[C@H](C)NC(=O)C3CCCCN3C(=O)C3CCCN3C2=O)cc1C (stereo partly drawn) [Compound 48, (S)-3-(3,5-Difluorophenyl)-N-((2S,6S,8aS,14aS,20S,23aS)-2,6-Dimethyl-5,8,14,19,23-Pentaoxooctadecahydro-1H,5H,14H,19H-Pyrido[2,1-I]Dipyrrolo[2,1-C:2′,1′-L][1]Oxa[4,7,10,13]Tetraazacyclohexadecin-20-Yl)-2-(3-(3,4-Dimethylphenyl)Ureido)Propanamide]	0.7 ± 0.03	8.1 ± 0.3	–	200	0.8 (≈ 0.646 µg/mL)	3.1 (≈ 2.5 µg/mL)	0.2 (≈ 0.162 µg/mL)	1.6 (≈ 1.29 µg/mL)
Cc1ccc(NC(=O)N[C@@H](Cc2cc(F)cc(F)c2)C(=O)N[C@H]2COC(=O)C3CC(C)(C)CN3C(=O)[C@H](C)NC(=O)C3CCCCN3C(=O)C3CCCN3C2=O)cc1 (stereo partly drawn) [Compound 49, (S)-3-(3,5-Difluorophenyl)-2-(3-(P-Tolyl)Ureido)-N-((6S,8aS,14aS,20S,23aS)-2,2,6-Trimethyl-5,8,14,19,23-Pentaoxooctadecahydro-1H,5H,14H,19H-Pyrido[2,1-I]Dipyrrolo[2,1-C:2′,1′-L][1]Oxa[4,7,10,13]Tetraazacyclohexadecin-20-Yl)Propanamide]	2.3 ± 0.2	12.7 ± 0.2	–	100	6.3 (≈ 5.09 µg/mL)	25 (≈ 20.2 µg/mL)	0.4 (≈ 0.323 µg/mL)	12.5 (≈ 10.1 µg/mL)
Cc1ccc(NC(=O)N[C@@H](Cc2cc(F)cc(F)c2)C(=O)N[C@H]2COC(=O)C3C[C@H](F)CN3C(=O)[C@H](C)NC(=O)C3CCCCN3C(=O)C3CCCN3C2=O)cc1 (stereo partly drawn) [Compound 50, (S)-3-(3,5-Difluorophenyl)-N-((2S,6S,8aS,14aS,20S,23aS)-2-Fluoro-6-Methyl-5,8,14,19,23-Pentaoxooctadecahydro-1H,5H,14H,19H-Pyrido[2,1-I]Dipyrrolo[2,1-C:2′,1′-L][1]Oxa[4,7,10,13]Tetraazacyclohexadecin-20-Yl)-2-(3-(P-Tolyl)Ureido)Propanamide]	0.9 ± 0.07	7.66 ± 0.2	–	>200	0.8 (≈ 0.638 µg/mL)	1.6 (≈ 1.28 µg/mL)	> 200	3.1 (≈ 2.47 µg/mL)
Cc1ccc(NC(=O)N[C@@H](Cc2cc(F)cc(F)c2)C(=O)N[C@H]2COC(=O)C3C[C@@H](F)CN3C(=O)[C@H](C)NC(=O)C3CCCCN3C(=O)C3CCCN3C2=O)cc1 (stereo partly drawn) [Compound 51, (S)-3-(3,5-Difluorophenyl)-N-((2R,6S,8aS,14aS,20S,23aS)-2-Fluoro-6-Methyl-5,8,14,19,23-Pentaoxooctadecahydro-1H,5H,14H,19H-Pyrido[2,1-I]Dipyrrolo[2,1-C:2′,1′-L][1]Oxa[4,7,10,13]Tetraazacyclohexadecin-20-Yl)-2-(3-(P-Tolyl)Ureido)Propanamide]	2.5 ± 0.2	9.71 ± 0.3	–	>200	6.3 (≈ 5.03 µg/mL)	12.5 (≈ 9.97 µg/mL)	> 200	12.5 (≈ 9.97 µg/mL)
